Measurements reported in patent publication US8742203B2, “Chemically Inducible Expression of Biosynthetic Pathways” (Metabolix, Inc., priority 2005, dated 2014).

Test system: 1I Arabidopsis plants
Assay: PHB yield in 1I plants, foliar applications of tebufenozide
Type: in vivo, Arabidopsis thaliana
Description: The genes required for the complete PHB production pathway, a β-ketothiolase (thiolase), an NADPH-acetoacetyl-CoA reductase (reductase) and a PHA synthase (synthase), were individually placed under the control of the minimal ^35S ecdysone-inducible promoter, fused to a plastid targeting signal, and cloned into a pCAMBIA (Centre for Application of Molecular Biology to International Agriculture, Canberra, Australia) based multigene plasmid containing the chimeric ecdysone receptor (A. Martinez, C. Sparks, C. A. Hart, J. Thompson, I. Jepson, Plant J. 19: 97 (1999)). This three-gene inducible construct is designated 3I. The single-gene inducible construct designated 1I contained the thiolase gene under the control of the inducible promoter, but unlike the 3I construct, it expressed the reductase and synthase genes under the control of the constitutive 35S-C4PPDK promoter (W. Chiu et al. Curr. Biol. 6: 325 (1996)).
Further analysis of the 1I construct by screening an additional 235 T1 1I plants identified plants capable of producing 2.5% and 2.6% dwt PHB respectively, in the presence and absence of foliar applications of the inducing agent tebufenozide. The ability of this construct to promote PHB production in a non-inducible fashion was confirmed through analysis of 72 T2 offspring of the best T1 1I plant. […]

SMILES: CCc1ccc(C(=O)NN(C(=O)c2cc(C)cc(C)c2)C(C)(C)C)cc1 [tebufenozide]
- PHB produced by best plants (additional 235 T1 1I plants screened, in the presence of foliar tebufenozide): 2.5 % dwt
- Average PHB accumulated (treated T2 1I offspring of best T1 1I plant, in the presence of inducing agent): 4.2±2.5 % dwt
